# Source: patent publication US20230104357A1, “Combination of Retromer Pharmacological Chaperones and Exogenous Retromer for the Treatment of Alzheimer's Disease and Other Neurodegenerative Diseases and Disorders” (The Trustees of Columbia University in the City of New York, priority 2020, published 2023)
# What was measured:
# VPS35 [1] = target: T1, VPS35 (Mus musculus, UniProt Q9EQH3); details: cultured primary neurons; Mecozzi et al. 2014; cited from earlier work
# T1 construct: cultured primary neurons; endogenous in cells; host or cells: cultured primary neurons
# VPS26 = details: cultured primary neurons; Mecozzi et al. 2014; cited from earlier work
# [2] = target: purified, reconstituted heterotrimeric complex (Homo sapiens, UniProt Q96QK1+Q9UBQ0); details: various concentrations; Mecozzi et al. 2014; cited from earlier work
# VPS35 [3] = target: T2, VPS35 (Homo sapiens, UniProt Q96QK1); test: Western blot of VPS35 protein levels in HECT293T cells after VPS35 plasmid transfection and/or R55; type: cell-based; details: 5 μM of R55, Western blot 72 hours after transfection, lanes 7 and 8
# T2 construct: expressed in transfected cells; host or cells: HECT293T cells
# Description: Human HECT293 cells, considered a model for human neurons, were cultured. VPS35 was delivered via plasmid to HECT293T cells under control of the constitutive EF1a promoter. Pharmacological chaperone R55 was administered to the cells as an aqueous solution at concentrations of 5 uM and 50 uM at the time of transfection. Protein levels were assessed by Western blot 72 hours after transfection.
# Lipofectamine transfection protocols were used with some modifications. Briefly lipofectamine LTX was used to co-transfect Vps35 and Vps26 (Vps26a or Vps26b) plasmids into the cells in a 6 well format. 100k cells were plated in each well already containing medium with DNA-lipofectamine complexes. Empty chassis and GFP as were used as control plasmids. Amount of DNA copies introduced per well was 2.81 E+11. Cells were harvested 48 hours after transfection using RIPA buffer as described previously (Qureshi et al. 2019).
# Cells were lysed in RIPA and protein were isolated as described previously (Qureshi et al. 2019; Kirby et al. 2015). Lysates from the samples were run on NuPAGE® Bis-Tris 4-12% gels, transferred onto nitrocellulose membranes using iblot and were probed with antibodies.
# A primary antibody targeting VPS35 was used (ab57632, Abcam, 1:1k). Western blots were scanned using the Odyssey imaging system as described previously (Eaton et al. 2013). […]
structure (smiles),measurement,setting,value
[H]/N=C(\N)SCc1ccc(CS/C(N)=N/[H])s1 [R55],VPS35 protein levels,VPS35 [1],increased
same,VPS26 protein levels,VPS26,increased
same,thermal stability (denaturation temperature of the complex),[2],improved thermal stability significantly
same,increase on endogenous VPS35 protein levels,VPS35 [3],about 50%
